Reference: PubChem BioAssay (NCI)
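Exposure lasted 48 hours, with cells grown in 96-well plates and compounds tested at five concentrations. Here, GI50 denotes the concentration required for 50% inhibition of growth. TGI marks complete inhibition of growth.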

Experiments:
Test in all cases: DTP human tumour cell line panel, 48 h
[1] = test system: SW-620 colon
[2] = test system: NCI-H522 lung
[3] = test system: SR leukemia
[4] = test system: DU-145 prostate
[5] = test system: U251 CNS
[6] = test system: HCT-116 colon
[7] = test system: SF-268 CNS
[8] = test system: COLO 205 colon
[9] = test system: SN12C renal
[10] = test system: A549 NSCLC
[11] = test system: 786-0 renal
[12] = test system: NCI-H226 lung
[13] = test system: HOP-92 NSCLC
[14] = test system: SNB-19 CNS
[15] = test system: T-47D breast
[16] = test system: UACC-257 melanoma
[17] = test system: MCF7 breast
[18] = test system: HCT-15 colon
[19] = test system: SK-MEL-5 melanoma
[20] = test system: SK-MEL-28 melanoma
[21] = test system: OVCAR-3 ovarian
[22] = test system: NCI/ADR-RES ovarian
[23] = test system: HL-60(TB) leukemia
[24] = test system: NCI-H23 lung
[25] = test system: TK-10 renal
[26] = test system: HT29 colon
[27] = test system: SK-MEL-2 melanoma
[28] = test system: OVCAR-4 ovarian
[29] = test system: SF-295 CNS
[30] = test system: ACHN renal
[31] = test system: NCI-H460 lung
[32] = test system: UACC-62 melanoma
[33] = test system: HS 578T breast
[34] = test system: SNB-75 CNS
[35] = test system: SK-OV-3 ovarian
[36] = test system: M14 melanoma
[37] = test system: CCRF-CEM leukemia
[38] = test system: PC-3 prostate
[39] = test system: HOP-62 NSCLC
[40] = test system: BT-549 breast
[41] = test system: KM12 colon
[42] = test system: A498 renal
[43] = test system: UO-31 renal
[44] = test system: SF-539 CNS
[45] = test system: RPMI-8226 leukemia
[46] = test system: K-562 leukemia
[47] = test system: HCC-2998 colon
[48] = test system: MDA-MB-435
[49] = test system: OVCAR-5 ovarian
[50] = test system: MOLT-4 leukemia
[51] = test system: LOX IMVI melanoma
[52] = test system: OVCAR-8 ovarian
[53] = test system: IGROV1 ovarian
[54] = test system: RXF 393 renal
[55] = test system: MALME-3M melanoma
[56] = test system: EKVX NSCLC
[57] = test system: CAKI-1 renal
[58] = test system: MDA-MB-231 breast

For CCc1ccc(CCC(=O)Nc2ncc(Cc3ccccc3)s2)o1, the GI50 [1] was 889 nM, the TGI [1] was greater than 100 µM and the GI50 [2] was 1990 nM. It also gave a TGI [2] greater than 100 µM, a GI50 [3] of 444 nM and a TGI [3] greater than 100 µM. The GI50 [4] was 4.51 µM, the TGI [4] was greater than 100 µM and the GI50 [5] was 3.06 µM. The TGI [5] was greater than 100 µM, the GI50 [6] was 1050 nM and the TGI [6] was greater than 100 µM. It also gave a GI50 [7] of 8.64 µM, a TGI [7] greater than 100 µM and a GI50 [8] of 2280 nM. The TGI [8] was greater than 100 µM, the GI50 [9] was 4.42 µM and the TGI [9] was greater than 100 µM. The GI50 [10] was 4.47 µM, the TGI [10] was greater than 100 µM and the GI50 [11] was 6.95 µM. For the same compound, the TGI [11] was greater than 100 µM, the GI50 [12] was 53.2 µM and the TGI [12] was greater than 100 µM. For the same compound, the GI50 [13] was 18.3 µM, the TGI [13] was greater than 100 µM and the GI50 [14] was 3.92 µM. The TGI [14] was greater than 100 µM, the GI50 [15] was 2600 nM and the TGI [15] was greater than 100 µM. For the same compound, the GI50 [16] was greater than 100 µM, the TGI [16] was greater than 100 µM and the GI50 [17] was 515 nM. The TGI [17] was greater than 100 µM, the GI50 [18] was 544 nM and the TGI [18] was greater than 100 µM. It also gave a GI50 [19] of 1160 nM, a TGI [19] greater than 100 µM and a GI50 [20] of 9.11 µM. It also gave a TGI [20] greater than 100 µM, a GI50 [21] of 2670 nM and a TGI [21] of 21.6 µM. It also gave a GI50 [22] of 2390 nM, a TGI [22] greater than 100 µM and a GI50 [23] of 1530 nM. The TGI [23] was 4.38 µM, the GI50 [24] was 4.47 µM and the TGI [24] was greater than 100 µM. For the same compound, the GI50 [25] was 23 µM, the TGI [25] was greater than 100 µM and the GI50 [26] was 1020 nM. For the same compound, the TGI [26] was greater than 100 µM, the GI50 [27] was 5.42 µM and the TGI [27] was greater than 100 µM. The GI50 [28] was 27.8 µM, the TGI [28] was greater than 100 µM and the GI50 [29] was 3.29 µM. The TGI [29] was greater than 100 µM, the GI50 [30] was 5.68 µM and the TGI [30] was greater than 100 µM. It also gave a GI50 [31] of 3.06 µM, a TGI [31] greater than 100 µM and a GI50 [32] of 1210 nM. The TGI [32] was greater than 100 µM, the GI50 [33] was 2290 nM and the TGI [33] was greater than 100 µM. It also gave a GI50 [34] of 1240 nM, a TGI [34] greater than 100 µM and a GI50 [35] of 2810 nM. It also gave a TGI [35] greater than 100 µM, a GI50 [36] of 876 nM and a TGI [36] greater than 100 µM. The GI50 [37] was 2020 nM, the TGI [37] was greater than 100 µM and the GI50 [38] was 2740 nM. The TGI [38] was greater than 100 µM, the GI50 [39] was 2910 nM and the TGI [39] was greater than 100 µM. It also gave a GI50 [40] of 52.2 µM, a TGI [40] greater than 100 µM and a GI50 [41] of 1300 nM. For the same compound, the TGI [41] was greater than 100 µM, the GI50 [42] was 1290 nM and the TGI [42] was 8.87 µM. It also gave a GI50 [43] of 3.19 µM, a TGI [43] greater than 100 µM and a GI50 [44] of 1670 nM. It also gave a TGI [44] of 4.46 µM, a GI50 [45] of 2610 nM and a TGI [45] greater than 100 µM. For the same compound, the GI50 [46] was 529 nM, the TGI [46] was greater than 100 µM and the GI50 [47] was 3.24 µM. The TGI [47] was greater than 100 µM, the GI50 [48] was 301 nM and the TGI [48] was 10.1 µM. It also gave a GI50 [49] of 3.93 µM, a TGI [49] greater than 100 µM and a GI50 [50] of 2430 nM. The TGI [50] was greater than 100 µM, the GI50 [51] was 6 µM and the TGI [51] was greater than 100 µM. For the same compound, the GI50 [52] was 4.5 µM, the TGI [52] was greater than 100 µM and the GI50 [53] was 3.24 µM. The TGI [53] was greater than 100 µM, the GI50 [54] was 2450 nM and the TGI [54] was 9.13 µM. The GI50 [55] was 18.3 µM, the TGI [55] was greater than 100 µM and the GI50 [56] was 4.6 µM. The TGI [56] was greater than 100 µM, the GI50 [57] was 2940 nM and the TGI [57] was greater than 100 µM. It also gave a GI50 [58] of 2520 nM and a TGI [58] of 22.2 µM.
